# According to the supplement of paper PMC8253809:
# Tests used:
# [1] = tested on: DIPGX37 (H3.3 K27M diffuse intrinsic pontine glioma line); experiment: area under dose-response curve of % growth inhibition (log2 RLU vs DMSO / staurosporine), 1e-11 to 1e-4 M (% x log10 M); higher = more growth inhibition
# Outline: (§1)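 Patient-derived pHGG/DIPG cell lines and astrocyte controls were grown on 1% Geltrex-coated 384-well plates and exposed to a 10-point threefold dilution series (mean top concentration 35 μM), in triplicate. Exposure was 7 days (iAstro 3 days) at 37 °C, 5% CO2. CellTiter-Glo luminescence was log2-transformed and normalised per plate to % activity between solvent and positive controls. Area under the curve was taken by trapezoid rule from the fitted log-logistic curve, or from a smoothing spline when the sigmoid fit failed.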
# [2] = tested on: HGGX6 (H3.3 G34R paediatric high-grade glioma line); experiment: as above
# Outline: as §1
# [3] = tested on: DIPGX29 (H3.3 K27M diffuse intrinsic pontine glioma line); experiment: as above
# Outline: as §1
# [4] = tested on: HGGX39 (paediatric high-grade glioma line); experiment: as above
# Outline: as §1
# [5] = tested on: DIPGX37; experiment: maximal growth inhibition (yFin) relative to DMSO / staurosporine; higher = more efficacious
# Outline: (§2)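 Patient-derived pHGG/DIPG cell lines and astrocyte controls were plated in 384-well plates coated with 1% Geltrex and dosed by pin tool with a 10-point threefold dilution series (mean top concentration 35 μM), in triplicate. Cells were exposed for 7 days (3 days for iAstro) at 37 °C and 5% CO2. CellTiter-Glo luminescence was log2-transformed, normalised per plate to % activity between negative (solvent) and positive control wells, and pooled. EC50 and maximal response (yFin) were taken from whichever three- or four-parameter log-logistic fit had the lowest AICc.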
# [6] = tested on: HGGX6; experiment: as above
# Outline: as §2
# [7] = tested on: DIPGX29; experiment: as above
# Outline: as §2
# [8] = tested on: HGGX39; experiment: as above
# Outline: as §2
# [9] = tested on: DIPGX37; experiment: EC50 (inflection of fitted growth-inhibition curve) (log10 M)
# Outline: as §2
# [10] = tested on: HGGX6; experiment: as above
# Outline: as §2
# [11] = tested on: DIPGX29; experiment: as above
# Outline: as §2
# [12] = tested on: HGGX39; experiment: as above
# Outline: as §2
Structure (SMILES),area under dose-response curve [1],area under dose-response curve [2],area under dose-response curve [3],area under dose-response curve [4],maximal growth inhibition [5] [%],maximal growth inhibition [6] [%],maximal growth inhibition [7] [%],maximal growth inhibition [8] [%],EC50 (log10 M) [9],EC50 (log10 M) [10],EC50 (log10 M) [11],EC50 (log10 M) [12]
CCN(CC)CCOCCOC(=O)C(CC)(CC)c1ccccc1 [OXELADIN],35.4,28.1,19.7,59.1,34.4,28.2,25.1,64.4,-4.88,-4.83,-4.79,-4.84
CN(C(=O)CN(CCO)CC(=O)N(C)C(C)(C)Cc1ccccc1)C(C)(C)Cc1ccccc1 [OXETHAZAINE],65.5,38.4,63,71.1,82.1,47.3,77.7,88.2,-4.8,-4.82,-4.81,-4.81
N=C(N)c1ccc(OCCCCCOc2ccc(C(=N)N)cc2)cc1 [PENTAMIDINE],50,45.3,55.6,66.5,31.7,33.1,38.4,32.4,-5.08,-5.4,-5.15,-6.05
COc1cc2nc(N3CCN(C(=O)c4ccco4)CC3)nc(N)c2cc1OC [PRAZOSIN],75.3,76.9,66.6,66.9,75.4,75,75.3,74.7,-4.92,-5.03,-4.88,-4.9
COc1cc(NC(C)CCCN)c2ncccc2c1 (centres undefined) [PRIMAQUINE],116,107,131,113,72.9,78,72.2,75.8,-5.5,-5.38,-5.69,-5.5
NCCOc1cc(C(=O)Nc2cc(OCCN)c3ccccc3n2)nc(C(=O)Nc2cc(OCCN)c3ccccc3n2)c1 [PYRIDOSTATIN],54,82.2,74,58.1,31.7,56.9,61,59.6,-5,-5.03,-5.01,-4.99
[O-][n+]1ccccc1[S-].[O-][n+]1ccccc1[S-].[Zn+2] [PYRITHIONE ZINC],112,116,130,135,93.1,75.7,82.5,83.5,-5.23,-5.55,-5.6,-5.61
CCN(CC)CCCC(C)Nc1c2ccc(Cl)cc2nc2ccc(OC)cc12 (centres undefined) [QUINACRINE],56,73.7,79.9,55.7,72.4,74.3,74.8,74.3,-4.78,-4.97,-4.79,-4.75
O=C(c1ccc(OCCN2CCCCC2)cc1)c1c(-c2ccc(O)cc2)sc2cc(O)ccc12 [RALOXIFENE],68.2,64.5,63.5,67.7,73.5,73.2,68.3,73.2,-4.93,-4.88,-4.93,-4.93
CNC(=O)c1cc(Oc2ccc(NC(=O)Nc3ccc(Cl)c(C(F)(F)F)c3)c(F)c2)ccn1 [REGORAFENIB],62.5,70.8,39.5,55.2,43.5,38,37.6,33.2,-5.37,-5.33,-4.87,-5.33
O=C(CCCCCCNC(=O)c1cnc(N(c2ccccc2)c2ccccc2)nc1)NO [ROCILINOSTAT],60.5,49.1,63.1,25.7,39.7,39.1,62.1,26.8,-4.87,-4.9,-4.94,-4.96
Cc1ccc(NC2=CC(=O)c3sc(C)nc3C2=O)cc1 [RYUVIDINE],187,197,207,169,110,90.5,97.5,98.1,-5.7,-6.18,-6.12,-5.76
CC[C@@H](C(=O)[C@@H](C)[C@@H](O)[C@H](C)[C@@H]1O[C@@H]([C@@H](CC)C(=O)O)CC[C@@H]1C)[C@H]1O[C@]2(C=C[C@@H](O)[C@]3(CC[C@@](C)([C@H]4CC[C@](O)(CC)[C@H](C)O4)O3)O2)[C@H](C)C[C@@H]1C [SALINOMYCIN],153,85.6,106,153,62.6,60.5,69.7,73.9,-6.53,-5.03,-5.32,-6.01
Clc1ccc(C(Cn2ccnc2)OCc2csc3c(Cl)cccc23)c(Cl)c1 (centres undefined) [SERTACONAZOLE],73.6,50.7,51.2,72.3,84.7,62.2,64.2,61.9,-4.87,-4.82,-4.81,-4.95
CN[C@H]1CC[C@@H](c2ccc(Cl)c(Cl)c2)c2ccccc21 [SERTRALINE],70,63.3,73.3,83.8,86.5,81,85.3,91.4,-4.82,-4.79,-4.86,-4.83
CNC(=O)c1cc(Oc2ccc(NC(=O)Nc3ccc(Cl)c(C(F)(F)F)c3)cc2)ccn1 [SORAFENIB],104,77.2,46.9,77,79,75.3,57.2,80.4,-4.9,-4.9,-4.82,-4.96
Cc1nc(-c2cccnc2)sc1C(=O)Nc1ccccc1-c1cn2c(CN3CCOCC3)csc2n1 [SRT2104],101,80.8,79.7,60.9,68.5,67.3,69,72.4,-5.24,-5.21,-5.16,-4.84
Clc1ccc(CSC(Cn2ccnc2)c2ccc(Cl)cc2Cl)cc1 (centres undefined) [SULCONAZOLE],41.8,44.2,48.2,39.2,61.3,44.1,45.9,34.1,-4.68,-4.87,-4.86,-4.87
Cc1nc(-c2cn3c(n2)-c2ccc(-c4cnn(C(C)(C)C(N)=O)c4)cc2OCC3)n(C(C)C)n1 [TASELISIB],138,86,122,74.8,56.7,38.8,63.3,47.5,-6.36,-6.13,-5.8,-5.49
COc1cc([C@@H]2c3cc4c(cc3[C@@H](O[C@@H]3O[C@@H]5CO[C@@H](c6cccs6)O[C@H]5[C@H](O)[C@H]3O)[C@H]3COC(=O)[C@H]23)OCO4)cc(OC)c1O [TENIPOSIDE],81.2,42.9,63.2,75.2,50.7,31.2,33.5,37.6,-5.43,-5.36,-6.01,-5.94
Clc1ccc(C(Cn2ccnc2)OCc2ccsc2Cl)c(Cl)c1 (centres undefined) [TIOCONAZOLE],56,38.1,36.4,51.3,78,46.3,48.3,65.3,-4.73,-4.82,-4.77,-4.79
CN1CCN(CCCN2c3ccccc3Sc3ccc(C(F)(F)F)cc32)CC1 [TRIFLUOPERAZINE],76.8,62.3,74.2,87.4,87.2,80.2,82.9,90.3,-4.88,-4.78,-4.89,-4.86
COc1cc2nc(N3CCCC3)nc(NCCCCCN3CCCC3)c2cc1OC [UNC0379],75.1,73.6,70.8,69.3,71.5,70.1,71.8,72.1,-5.05,-4.91,-4.88,-4.89
COc1cc2c(NC3CCN(C(C)C)CC3)nc(N3CCC(F)(F)CC3)nc2cc1OCCCN1CCCC1 [UNC0642],96,75.5,71.3,62.5,70.6,72.8,74.9,74.9,-5.19,-5.05,-4.96,-4.84
CCCc1cc(C)[nH]c(=O)c1CNC(=O)c1cc(-c2ccc(N3CCN(C(C)C)CC3)nc2)cc2c1cnn2C(C)C [UNC1999],85.9,83.6,75,70.2,73.8,72.5,73.8,76.4,-5.18,-5.11,-5.02,-4.92
COc1cc2/c(=N/c3ccc(Br)cc3F)nc[nH]c2cc1OCC1CCN(C)CC1 [VANDETANIB],65.1,54.2,68.7,60.3,80.9,77.1,80.7,80.4,-4.7,-4.7,-4.74,-4.75
O=C(CCCCCCC(=O)Nc1ccccc1)NO [VORINOSTAT],58.2,83.9,77.5,60.1,68,76.9,74.2,64.3,-4.65,-4.68,-4.98,-4.71
